# How the values were obtained:
# GPX1 = assay: Western blotting of GPX1 protein abundance; format: cell-based, human; settings: BJeLR; FIN56 5 μM, 10 h
# Procedure: Seeded 300,000 cells (HT-1080 or BJeLR) per well in six-well plates. For cotreatment, ferroptosis inducers (10 μM erastin for 11 h, 0.5 μM (1S, 3R)-RSL3 for 2 h, or 5 μM FIN56) and 100 μM α-tocopherol were added to cell culture at the same time, and cells were then incubated for 10 h (FIG. 2E). When other death-modulating compounds (100 nM sodium selenite, 1 μM cerivastatin, 100 μg/mL mevalonic acid, 30 μM C75, or 2 μM cerulenin) were used in cotreatments, cells were pre-incubated with the modulators for 24 h before being treated with ferroptosis inducers for 6 h. Cell lysis, SDS-PAGE and protein transfer to PVDF membrane were performed as previously described (Dixon et al. 2012). We used the following antibodies: anti-human α-tubulin (Santa Cruz Biotechnology, sc-32293, 1:10,000 dilution), anti-human GPX4 (Abcam, ab41787, 1:2,000 dilution), anti-human GPX1 (R&D Systems, AF3798, 1:1,000 dilution), and anti-human SQS (Abcam, ab109723 for full-length, ab195046 for truncated, both at 1:1,000 dilution). Secondary antibodies were from LI-COR (1:3,000 dilution). The PVDF membranes labeled with primary and secondary antibodies were scanned using an Odyssey Imaging System (LI-COR). Experiments were performed in biological triplicates, and the mean±s.e. of intensity was plotted.
# GPX4 transcripts = assay: Reverse-transcription quantitative PCR of GPX4 transcripts; format: cell-based; settings: 5 μM FIN56
# Procedure: Trypsinized 0.2 to 1 million cells grown in six-well dishes, pelleted them, resuspended them in Buffer RLT (Qiagen), and homogenized them with QlAshredder (Qiagen). RNA was further extracted using the RNeasy Mini Kit (Qiagen). We converted 2 μg of extracted RNA from each sample into cDNA using TaqMan reverse-transcription reagents (Life Technologies). qPCR primers were designed to detect all splicing variants using Primer Express 2.0 (Applied Biosystems). The designed primers were confirmed to amplify only the designated gene transcripts using in silico PCR (see, e.g., http://genome.ucsc.edu/cgi-bin/hgPcr). For qPCR reactions, primers, cDNA, and Power SYBR Green PCR Master Mix (Applied Biosystems) were mixed, and quantitation was performed using a StepOnePlus real-time PCR system (Applied Biosystems). Experiments were done in biological triplicates.
# HT-1080 cells [1] = assay: Flow cytometry of intracellular Ca(II) levels (Fluo-4); format: cell-based; settings: 2 μM FIN56; over the course of 9 h
# From the text: The third compound set examined was suppressors of both ferroptosis and necrosis. These were predicted to target three proteins: alpha-1 (α1) adrenergic receptors 1B and 1D and calmodulin 3. Activation of α1 activates phospholipase C and increases Ca(II). Calmoduline 3 is a calcium-binding protein. Since all three proteins are relevant to calcium signaling, we hypothesized that calcium mediates FIN56-induced ferroptosis.
# HT-1080 cells [2] = assay: Analysis of lipid ROS generation (C11-BODIPY 581/591 flow cytometry); format: cell-based; settings: HT-1080; 6 h; with or without deferoxamine
# Procedure: Cells were treated with test compounds, trypsinized, pelleted, and washed once with PBS. For lipophilic or aqueous ROS detection, cells were re-suspended in Hanks' Balanced Salt Solution (HBSS; […] Cells were then pelleted, re-suspended in 500 μL HBSS, strained through a 40-μm cell strainer (BD Falcon), and analyzed using a BD Accuri C6 flow cytometer (BD Biosciences). Both dyes were measured in the FL1 channel. Experiments were done in biological triplicates.
SMILES,abundance of GPX1 protein (GPX1),GPX4 transcript level (GPX4 transcripts),intracellular Ca(II) levels (Fluo-4) (HT-1080 cells [1]),lipid ROS generation (BODIPY-581/591 C11) (HT-1080 cells [2])
"O=S(=O)(NC1CCCCC1)c1ccc2c(c1)C(=NO)c1cc(S(=O)(=O)NC3CCCCC3)ccc1-2 [FIN56, N2,N7-dicyclohexyl-9-(hydroxyimino)-9H-fluorene-2,7-disulfonamide]","but not that of the related selenoprotein GPX1, was substantially decreased","increased, rather than decreased",increased intracellular Ca(II) levels,–
"O=S(=O)(c1ccc2c(c1)C(=NO)c1cc(S(=O)(=O)N3CCCCC3)ccc1-2)N1CCCCC1 [CIL56, 2,7-bis(piperidin-1-ylsulfonyl)-9H-fluoren-9-one oxime]",–,–,–,induced iron-dependent ROS

# Reference: patent US10947188B2, “Small molecule ferroptosis inducers” (THE TRUSTEES OF COLUMBIA UNIVERSITY IN THE CITY OF NEW YORK, priority 2016, dated 2021)
